US12441736B2, “KIF18A inhibitors” (AMGEN INC., priority 2018, dated 2025)

What follows are molecules tested against T1, Recombinant human KIF18A (1-467 His-tagged) protein (Homo sapiens, UniProt Q8NI77) (assay: KIF18A Enzyme Assay: microtubule-stimulated ATPase activity (ADP-Glo)). Conditions: 30 nM KIF18A, 30 μg/mL pig microtubules, 75 μM ATP, ADP-Glo luminescence.
T1 construct: Recombinant human KIF18A (1-467 His-tagged) protein; His; made in house
Format: biochemical
Excerpt: KIF18A Enzyme Assay: Microtubule-stimulated ATPase activity assay is used to measure KIF18A enzyme activity after treatment with compound. Compounds were 2-fold serially diluted in DMSO (Sigma Inc) over 22-point concentration range. Recombinant human KIF18A (1-467 His-tagged) protein was expressed using a baculovirus system and purified by affinity chromatography by Amgen Inc. Concentrations of KIF18A protein, microtubules (MT), and ATP in the reaction were optimized for standardized homogenous enzyme assay using ADP-Glo™ Kinase/ATPase Assay Kit (Promega Inc). The assay measures ADP formed from the ATPase reaction. Prepare reaction buffer [(15 mM Tris, pH 7.5 (Teknova Inc), 10 mM MgCl2 (IT Baker Inc), 0.01% Pluronic F-68 (Life Technologies Inc), 1 μM Taxol (Cytoskeleton Inc), and 30 μg/mL pig microtubules (Cytoskeleton Inc)]. Add compound and KIF18A protein (30 nM) to prepared reaction buffer and incubated for 15 minutes at room temperature, next add ATP (at Kin, 75 μM) to the reaction mixture and incubated for an additional 15 minutes at room temperature. Mix 5 μl of ADP-Glo™ Reagent and 2.5 μl of the reaction mixture and incubate for 40 minutes at room temperature. Add 10 μl ADP-Glo™ Detection Reagent and incubate for 40 minutes at room temperature. Read luminescence using EnVision microplate reader with ultra-luminescence module (Perkin Elmer Inc). Concentration-response curve-fitting and IC50 determination was performed using Genedata Screener Software (Standard 15.0.1, Genedata Inc) with a four-parameter logistic regression fit model.
Table A provides data for compounds exemplified in the present application and priority document thereof, as representative compounds of the present invention, as follows: chemical name (as named by either ACD software or ChemDraw (Professional 15.0)) and biological data (IC50 in μM). Ex. # refers to Example No.

T1 sequence (Q8NI77 1-467): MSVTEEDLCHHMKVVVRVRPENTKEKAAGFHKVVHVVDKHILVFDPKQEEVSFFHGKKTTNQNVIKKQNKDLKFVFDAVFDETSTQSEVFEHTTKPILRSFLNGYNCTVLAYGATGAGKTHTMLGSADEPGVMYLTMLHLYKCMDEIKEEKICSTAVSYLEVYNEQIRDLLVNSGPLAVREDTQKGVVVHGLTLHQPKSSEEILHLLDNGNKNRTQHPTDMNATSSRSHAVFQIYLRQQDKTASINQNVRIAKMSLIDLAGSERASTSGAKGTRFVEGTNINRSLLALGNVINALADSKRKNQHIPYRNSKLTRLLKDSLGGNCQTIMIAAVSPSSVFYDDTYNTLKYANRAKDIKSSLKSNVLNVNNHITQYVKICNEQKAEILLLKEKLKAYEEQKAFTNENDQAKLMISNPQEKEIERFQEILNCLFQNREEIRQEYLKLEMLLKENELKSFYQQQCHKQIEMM
T1 sequence (P02550 whole entry partner): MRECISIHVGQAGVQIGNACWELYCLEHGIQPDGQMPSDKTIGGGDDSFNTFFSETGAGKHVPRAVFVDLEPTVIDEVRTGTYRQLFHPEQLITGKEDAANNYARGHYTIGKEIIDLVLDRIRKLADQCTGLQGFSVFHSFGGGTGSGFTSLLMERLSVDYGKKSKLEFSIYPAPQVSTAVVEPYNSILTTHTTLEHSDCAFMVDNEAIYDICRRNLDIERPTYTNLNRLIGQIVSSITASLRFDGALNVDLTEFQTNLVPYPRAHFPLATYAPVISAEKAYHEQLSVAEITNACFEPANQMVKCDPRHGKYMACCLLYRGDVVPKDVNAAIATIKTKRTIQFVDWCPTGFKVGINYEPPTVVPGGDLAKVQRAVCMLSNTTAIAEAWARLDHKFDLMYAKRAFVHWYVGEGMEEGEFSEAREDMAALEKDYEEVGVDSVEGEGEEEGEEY
T1 sequence (P02554 whole entry partner): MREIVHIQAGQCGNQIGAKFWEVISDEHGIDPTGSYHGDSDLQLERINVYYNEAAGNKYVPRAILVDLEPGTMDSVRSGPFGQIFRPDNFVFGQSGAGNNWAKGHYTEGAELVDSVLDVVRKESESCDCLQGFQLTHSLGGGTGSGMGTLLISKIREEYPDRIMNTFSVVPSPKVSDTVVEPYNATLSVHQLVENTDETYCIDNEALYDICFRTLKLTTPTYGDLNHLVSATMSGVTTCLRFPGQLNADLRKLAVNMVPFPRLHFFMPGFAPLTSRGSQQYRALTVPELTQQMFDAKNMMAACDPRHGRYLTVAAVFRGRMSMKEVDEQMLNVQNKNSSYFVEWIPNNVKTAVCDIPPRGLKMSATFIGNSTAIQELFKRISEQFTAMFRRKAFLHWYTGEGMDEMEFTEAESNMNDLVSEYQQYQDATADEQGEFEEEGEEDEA

Compound	IC50
CC(C)(CO)Nc1ccc(C(=O)Nc2cc(C3CC3)cc(N3CCOCC3)n2)c(N2CCC3(CC2)CC3)n1 [Example 160, 2-(6-azaspiro[2.5]octan-6-yl)-N-(4-cyclopropyl-6-(4-morpholinyl)-2-pyridinyl)-6-((1-hydroxy-2-methyl-2-propanyl)amino)-3-pyridinecarboxamide]	278 nM
CC(C)N1CCN(c2cccc(NC(=O)c3ccc(NC(C)(C)CO)nc3N3CCC4(CC3)CC4)n2)CC1 [Example 188, 2-(6-azaspiro[2.5]octan-6-yl)-6-((1-hydroxy-2-methyl-2-propanyl)amino)-N-(6-(4-(2-propanyl)-1-piperazinyl)-2-pyridinyl)-3-pyridinecarboxamide]	2260 nM
CC(C)(C)NS(=O)(=O)c1cccc(NC(=O)c2ccc([C@](C)(O)CO)nc2N2CCC3(CC2)CC3)n1 (single isomer, unassigned) [Example 177]	87.3 nM
C[C@@H]1CN(c2cccc(NC(=O)c3cnc(NS(=O)(=O)CCO)cc3N3CCC4(CC3)CC4)n2)CCO1 [Example 237]	66.7 nM
C[C@H]1CN(c2cccc(NC(=O)c3ncc(NC(C)(C)CO)nc3N3CCC4(CC3)CC4)n2)C[C@H](C)O1 (racemic) [Example 111, N-(6-((2S,6S)-2,6-dimethylmorpholino)pyridin-2-yl)-5-((1-hydroxy-2-methylpropan-2-yl)amino)-3-(6-azaspiro[2.5]octan-6-yl)pyrazine-2-carboxamide]	110 nM
CC(C)(CO)Nc1cnc(C(=O)Nc2cccc(N3C[C@@H]4C[C@H]3CO4)n2)c(N2CCC3(CC2)CC3)n1 (racemic) [Example 112, N-(6-((1S,4S)-2-oxa-5-azabicyclo[2.2.1]heptan-5-yl)pyridin-2-yl)-5-((1-hydroxy-2-methylpropan-2-yl)amino)-3-(6-azaspiro[2.5]octan-6-yl)pyrazine-2-carboxamide]	182 nM
CC(C)(C)NS(=O)(=O)c1cccc(NC(=O)c2ncc(NC(C)(C)CO)nc2N2CCC3(CC2)CC3)n1 [Example 102, N-(6-(N-(tert-butyl)sulfamoyl)pyridin-2-yl)-5-((1-hydroxy-2-methylpropan-2-yl)amino)-3-(6-azaspiro[2.5]octan-6-yl)pyrazine-2-carboxamide]	75.3 nM
C[C@@H]1CN(c2cccc(NC(=O)c3ccc([C@@](O)(CO)C(F)(F)F)nc3N3CCC4(CC3)CC4)n2)CCO1 (single isomer, unassigned) [Example 206]	116 nM
CC(C)(CO)Nc1cnc(C(=O)Nc2cccc(N3CCOCC3)n2)c(N2CCC3(CC2)CC3)n1 [Example 106, 3-(6-azaspiro[2.5]oct-6-yl)-5-((2-hydroxy-1,1-dimethylethyl)amino)-N-(6-(4-morpholinyl)-2-pyridinyl)-2-pyrazinecarboxamide]	84.4 nM
Cc1cc(NC(=O)c2ccc(NC(C)(C)CO)nc2N2CCC3(CC2)CC3)nc(S(=O)(=O)NC(C)(C)C)c1 [Example 157, 2-(6-azaspiro[2.5]octan-6-yl)-6-((1-hydroxy-2-methyl-2-propanyl)amino)-N-(4-methyl-6-((2-methyl-2-propanyl)sulfamoyl)-2-pyridinyl)-3-pyridinecarboxamide]	206 nM
COC(=O)C(F)(C(=O)OC)c1ccc(C(=O)Nc2cccc(N3CCO[C@H](C)C3)n2)c(N2CCC3(CC2)CC3)n1 [Example 198, dimethyl (6-(6-azaspiro[2.5]octan-6-yl)-5-((6-((2R)-2-methyl-4-morpholinyl)-2-pyridinyl)carbamoyl)-2-pyridinyl)(fluoro)propanedioate]	156 nM
COc1cc(NC(=O)c2ncc(NC(C)(C)CO)nc2N2CCC3(CC2)CC3)nc(N2CCOCC2)c1 [Example 116, 3-(6-azaspiro[2.5]octan-6-yl)-5-((1-hydroxy-2-methyl-2-propanyl)amino)-N-(4-methoxy-6-(4-morpholinyl)-2-pyridinyl)-2-pyrazinecarboxamide]	1160 nM
CC(O)(c1ccc(C(=O)Nc2cccc(N3CCOCC3)n2)c(N2CCC3(CC2)CC3)n1)C(F)(F)F (single isomer, unassigned) [Example 141]	88 nM
C[C@@H]1CN(c2cccc(NC(=O)c3ncc(NS(C)(=O)=O)nc3N3CCC4(CC3)CC4)n2)CCO1 [Example 121, 3-(6-azaspiro[2.5]octan-6-yl)-N-(6-((2R)-2-methyl-4-morpholinyl)-2-pyridinyl)-5-((methylsulfonyl)amino)-2-pyrazinecarboxamide]	642 nM
CC(C)(CO)Nc1ccc(C(=O)Nc2cccc(N3CCOC(C(F)(F)F)C3)n2)c(N2CCC3(CC2)CC3)n1 (centres unmarked) [Example 205, 6-((1-hydroxy-2-methylpropan-2-yl)amino)-2-(6-azaspiro[2.5]octan-6-yl)-N-(6-(2-(trifluoromethyl)morpholino)pyridin-2-yl)nicotinamide]	123 nM
Cc1cc(NC(=O)c2ccc(OCC(N)(CO)C(F)(F)F)nc2N2CCC3(CC2)CC3)nc(N2CCOCC2)c1 (centres unmarked) [Example 208, 6-(2-amino-3,3,3-trifluoro-2-(hydroxymethyl)propoxy)-N-(4-methyl-6-morpholinopyridin-2-yl)-2-(6-azaspiro[2.5]octan-6-yl)nicotinamide]	692 nM
CC(CO)(CO)Nc1ccc(C(=O)Nc2cccc(Br)n2)c(N2CCC3(CC2)CC3)n1 [Example 164, 2-(6-azaspiro[2.5]octan-6-yl)-N-(6-bromo-2-pyridinyl)-6-((1,3-dihydroxy-2-methyl-2-propanyl)amino)-3-pyridinecarboxamide]	2750 nM
CC(C)(C)NS(=O)(=O)c1cccc(NC(=O)c2ccc(C(F)CO)nc2N2CCC3(CC2)CC3)n1 (centres unmarked) [Example 195, N-(6-(N-(tert-butyl)sulfamoyl)pyridin-2-yl)-6-(1-fluoro-2-hydroxyethyl)-2-(6-azaspiro[2.5]octan-6-yl)nicotinamide]	196 nM
CS(=O)(=O)Cc1ccc(C(=O)Nc2cccc(N3CCC[C@@H](O)C3)n2)c(N2CCC3(CC2)CC3)n1 [Example 241, 2-(6-azaspiro[2.5]octan-6-yl)-N-(6-((3R)-3-hydroxy-1-piperidinyl)-2-pyridinyl)-6-((methylsulfonyl)methyl)-3-pyridinecarboxamide]	101 nM
CC(C)(CO)Nc1ccc(C(=O)Nc2cccc(N3CCC(O)C3(C)C)n2)c(N2CCC3(CC2)CC3)n1 (centres unmarked) [Example 221, N-(6-(3-hydroxy-2,2-dimethylpyrrolidin-1-yl)pyridin-2-yl)-6-((1-hydroxy-2-methylpropan-2-yl)amino)-2-(6-azaspiro[2.5]octan-6-yl)nicotinamide]	357 nM
CC(C)(C)NS(=O)(=O)c1cccc(NC(=O)c2ccc(C3(C(F)(F)F)COC(C)(C)O3)nc2N2CCC3(CC2)CC3)n1 (racemic) [Example 171, N-(6-(N-(tert-butyl)sulfamoyl)pyridin-2-yl)-6-(2,2-dimethyl-4-(trifluoromethyl)-1,3-dioxolan-4-yl)-2-(6-azaspiro[2.5]octan-6-yl)nicotinamide]	286 nM
CC1(C)CC(=O)N(c2cccc(NC(=O)c3ccc(NC(C)(C)CO)nc3N3CCC4(CC3)CC4)n2)C1 [Example 135, 2-(6-azaspiro[2.5]oct-6-yl)-N-(6-(4,4-dimethyl-2-oxo-1-pyrrolidinyl)-2-pyridinyl)-6-((2-hydroxy-1,1-dimethylethyl)amino)-3-pyridinecarboxamide]	110 nM
CC(C)(C)NS(=O)(=O)c1cccc(NC(=O)c2ncc(C(C)(O)C(F)(F)F)nc2N2CCC3(CC2)CC3)n1 (centres unmarked) [Example 110, N-(6-(N-(tert-butyl)sulfamoyl)pyridin-2-yl)-3-(6-azaspiro[2.5]octan-6-yl)-5-(1,1,1-trifluoro-2-hydroxypropan-2-yl)pyrazine-2-carboxamide]	260 nM
CC(C)(CO)Nc1ccc(C(=O)Nc2cccc(N3CCCC3=O)n2)c(N2CCC3(CC2)CC3)n1 [Example 134, 2-(6-azaspiro[2.5]oct-6-yl)-6-((2-hydroxy-1,1-dimethylethyl)amino)-N-(6-(2-oxo-1-pyrrolidinyl)-2-pyridinyl)-3-pyridinecarboxamide]	204 nM
CC(C)(CO)Nc1cnc(C(=O)Nc2cccc(N3CCO[C@H](CO)C3)n2)c(N2CCC3(CC2)CC3)n1 [Example 120, 3-(6-azaspiro[2.5]octan-6-yl)-N-(6-((2S)-2-(hydroxymethyl)-4-morpholinyl)-2-pyridinyl)-5-((1-hydroxy-2-methyl-2-propanyl)amino)-2-pyrazinecarboxamide]	176 nM
CC(C)(CO)Nc1ccc(C(=O)Nc2cccc(N3CCC[C@@H](O)C3)n2)c(N2CCC3(CC2)CC3)n1 [Example 216, 2-(6-azaspiro[2.5]octan-6-yl)-6-((1-hydroxy-2-methyl-2-propanyl)amino)-N-(6-((3R)-3-hydroxy-1-piperidinyl)-2-pyridinyl)-3-pyridinecarboxamide]	80.4 nM
